In patent US6579851B2, “Effects of glucagon-like peptide-1 (7-36) on antro-pyloro-duodenal motility” (Amylin Pharmaceuticals, Inc., priority 2000, dated 2003):
Marks after values point to notes of the source that are not given here.

What was measured:
[1] = Plasma glucose during intravenous GLP-1 infusion (glucose oxidase method); format: in vivo, human; conditions: for Nadir of plasma glucose: at 20 min
Experimental: (§1) All values were expressed as mean±SEM. […] Differences were considered significant at P<0.05.
(§2) All studies were performed after an overnight fast.
(§3) The plasma was stored at −20° C. until assayed.

[2] = Plasma insulin during intravenous GLP-1 infusion (immunoassay); format: in vivo, human
Experimental: as §1, §2, §3

[3] = Plasma pancreatic polypeptide immunoreactivity during intravenous GLP-1 infusion; format: in vivo, human
Experimental: as §1, §2, §3

[4] = test system: antro-duodenal motility; test: Antro-duodenal motility by perfusion manometry; format: in vivo, human; conditions: for Duodenal Motility Contractions: sum of three duodenal side holes; for Antral Motility Contractions: sum of two antral side holes
Experimental: (§4) Inhibition of antro-duodenal activity is assessed directly by motility recordings using methods that are well known to the skilled artisan. Contractile events are analyzed with a computer and validated software (Katschinski et al., Gastroenterol. 103, 383-91 (1992)) and only peaks with amplitudes of at least 10 mmHg and a duration of at least 2 s are considered true contractions. Duodenal phase III is defined as the occurrence of regular contractions at a frequency of ≧10/min for at least 2 min in the duodenum propagated aborally.
In one embodiment, the data are analyzed in 10-min segments separately for antrum and duodenum by summarizing (frequency, motility index) or averaging (amplitude) the values derived from, the two antral and three duodenal side holes, respectively. Motility indexes are identified as the area under the contractions and are expressed in mmHg·s·min^−1. Antral contractions are determined to be antro-pyloro-duodenally propagated waves if the onset of the pressure wave recorded in the most proximal duodenal side hole, occurs within 5 sec after the onset of a pressure wave recorded in one of the antral side holes and if both wave are registered by all side holes in between.
as §2
(§5) Perfusion manometry was recorded using a nine-lumen duodenal sleeve/side-hole catheter (Dentsleeve, South Australia, Australia). The manometric assembly incorporated a 4.5 cm long sleeve sensor, two antral side-holes (2 cm apart), and three duodenal side-holes (2 cm apart), beginning at the proximal and distal end of the sleeve, respectively. Two more side-holes were positioned across the sleeve spaced 1.5 cm apart. An additional lumen located 12 cm distal to the sleeve sensor was used for duodenal perfusion.
(§6) The correct position of the duodenal probe with the sleeve array straddling the pylorus was fluoroscopically checked before start of each experiment, and monitored throughout each study by measuring the transmucosal potential difference at the distal antral and the proximal duodenal port, as previously described (Schirra et al. J Clin Invest 97, 92-103 (1996)). A difference of at least −15 mV indicated correct transpyloric position of the tube.
(§7) The motility channels were perfused at a rate of 0.3 ml/min using a low-compliance pneumohydraulic pump (Arndorfer Medical Specialists, Greendale, Wis.). Pressures were measured by external transducers. Data were simultaneously recorded on the screen of a multichannel chart system (PC Polygraph, Synectics Medical, Stockholm, Sweden) and stored in the memory of a personal computer. Data were sampled and digitized at 8 Hz followed by digital smoothing by a factor of 2.

[5] = test system: pyloric motility; test: Pyloric motility (IPPW, pyloric tone) and duodenal phase III by perfusion manometry; format: in vivo, human; conditions: for Volunteers with duodenal phase III: within 10 min after GLP-1 infusion; for Pyloric Motility IPPW: actual values; for Pyloric tone: values over basal
Experimental: as §4
As used herein, “inhibition” of antro-pyloro-duodenal motility is defined as a reduction in the motility index. Other methods for measuring motility can be used. One of skill in the art will appreciate that a significant inhibition, including total inhibition, of motility will be useful.
The present invention also relates to therapeutic methods associated with stimulating pyloric motility. Two parameters used to describe pyloric motility are: 1) Isolated pyloric pressure waves (IPPW), defined as contractions registered by the sleeve with or without simultaneous contractions in maximally one sleeve-side-hole in the absence of associated (±3 sec) waves of any amplitude in the adjacent antral and duodenal side-holes and 2) pyloric tone. Pyloric tone is measured by deducting the basal pressure recorded by the antral side hole at the proximal end of the sleeve, from the basal pressure recorded by the sleeve. Basal pressures is defined as the mean pressure after excluding contractions; it is obtained each minute and used to calculate mean pyloric tone.
as §1, §2, §5, §6, §7

[6] = during the experiments of the application
Experimental: Eleven healthy male volunteers, 23 to 28 years old and within 10% of ideal body weight, participated in the studies. None of them were taking medication, or suffering from gastrointestinal symptoms or systemic disease.
All studies were performed after an overnight fast. Two experiments were performed, separated by at least 1 week on subjects lying in a semirecumbent position. An indwelling catheter was inserted into an antecubital vein for intravenous infusions. A second catheter was inserted into a dorsal vein of the contralateral hand in a retrograde fashion for sampling of arterialized blood (Schirra et al. Proc Assoc Am Physicians 109, 84-97 (1997)).
On the interdigestive study day, 0.154 M saline was continuously perfused into the region of the lower duodenal flexure at a rate of 2.5 ml/min. […] On the postprandial study day, the same intravenous infusions were administered with an intraduodenal lipid perfusion at 2.5 kcal/min (2.5 ml/min, Lipofundin MCT 10%, Braun Co., Melsungen, Germany). This lipid preparation consisted of 50% medium-chain triglycerides (MCT) and 50% long-chain triglycerides (LCT, soya bean oil).

[7] = intraduodenal lipid, high dose 1.2 pmol·kg−1·min−1 iv.
[8] = intraduodenal lipid, low dose 0.4 pmol·kg−1·min−1 iv.
[9] = intraduodenal saline, high dose 1.2 pmol·kg−1·min−1 iv.
[10] = intraduodenal saline, low dose 0.4 pmol·kg−1·min−1 iv.
[11] = low dose GLP-1, interdigestive, duodenal saline
[12] = low dose GLP-1, interdigestive state

CC[C@H](C)[C@H](NC(=O)[C@H](Cc1ccccc1)NC(=O)[C@H](CCC(=O)O)NC(=O)[C@H](CCCCN)NC(=O)[C@H](C)NC(=O)[C@H](C)NC(=O)[C@H](CCC(N)=O)NC(=O)CNC(=O)[C@H](CCC(=O)O)NC(=O)[C@H](CC(C)C)NC(=O)[C@H](Cc1ccc(O)cc1)NC(=O)[C@H](CO)NC(=O)[C@H](CO)NC(=O)[C@@H](NC(=O)[C@H](CC(=O)O)NC(=O)[C@H](CO)NC(=O)[C@@H](NC(=O)[C@H](Cc1ccccc1)NC(=O)[C@@H](NC(=O)CNC(=O)[C@H](CCC(=O)O)NC(=O)[C@H](C)NC(=O)[C@@H](N)Cc1c[nH]cn1)[C@@H](C)O)[C@@H](C)O)C(C)C)C(=O)N[C@@H](C)C(=O)N[C@@H](Cc1c[nH]c2ccccc12)C(=O)N[C@@H](CC(C)C)C(=O)N[C@H](C(=O)N[C@@H](CCCCN)C(=O)NCC(=O)N[C@@H](CCCNC(=N)N)C(N)=O)C(C)C [GLP-1, glucagon-like peptide-1(7-36)amide]
Nadir of plasma glucose ([1]; high dose GLP-1): 3.64 ± 0.14 mmol/L
Plasma glucose (AUC over basal) [1, 7]: −4.5 ± 0.7*∥ mmol/l · 60 min
Plasma glucose (AUC over basal) [1, 8]: −4.7 ± 0.5*∥ mmol/l · 60 min
Plasma glucose (AUC over basal) [1, 9]: −2.5 ± 0.4 mmol/l · 60 min
Plasma glucose (AUC over basal) [1, 10]: −2.3 ± 0.3 mmol/l · 60 min
Nadir of plasma glucose ([1]; low dose GLP-1): 3.58 ± 0.12 mmol/L
Insulin (AUC over basal) [2, 7]: 31.4 ± 8.4∥ mU/l · 60 min
Insulin (AUC over basal) [2, 8]: 24.7 ± 4.8∥ mU/l · 60 min
Insulin (AUC over basal) [2, 9]: 11.9 ± 5.1 mU/l · 60 min
Insulin (AUC over basal) [2, 10]: 11.3 ± 2.4 mU/l · 60 min
Pancreatic polypeptide (AUC over basal) [3, 7]: −104.2 ± 71.1 pg/ml · 60 min
Pancreatic polypeptide (AUC over basal) [3, 8]: 7.7 ± 55.4*∥ pg/ml · 60 min
Pancreatic polypeptide (AUC over basal) [3, 9]: −128.9 ± 33.2 pg/ml · 60 min
Pancreatic polypeptide (AUC over basal) [3, 10]: −90.5 ± 32.7 pg/ml · 60 min
Antral Amplitude [4, 7]: 23.0 ± 2.7 mmHg
Antral Motility Index [4, 7]: 628 ± 249 mmHg*s/60 min
Duodenal Amplitude [4, 7]: 19.2 ± 3.1 mmHg
Duodenal Motility Index [4, 7]: 1174 ± 499 mmHg*s/60 min
Duodenal Motility Contractions [4, 7]: 16.6 ± 5.9 number / 60 min
Antral Motility Contractions [4, 7]: 9.2 ± 2.9 number / 60 min
Antral Amplitude [4, 8]: 23.6 ± 3.1 mmHg
Antral Motility Index [4, 8]: 880 ± 351 mmHg*s/60 min
Duodenal Amplitude [4, 8]: 26.0 ± 3.3 mmHg
Duodenal Motility Index [4, 8]: 2776 ± 890 mmHg*s/60 min
Duodenal Motility Contractions [4, 8]: 29.5 ± 5.8 number / 60 min
Antral Motility Contractions [4, 8]: 12.1 ± 4.1 number / 60 min
Antral Amplitude [4, 9]: 21.1 ± 3.1 mmHg
Antral Motility Index [4, 9]: 957 ± 322 mmHg*s/60 min
Antro-Pyloro-Duodenal Propagated Contractions [4, 9]: 0.0* number/60 min
Duodenal Amplitude [4, 9]: 17.5 ± 1.9 mmHg
Duodenal Motility Index [4, 9]: 1119 ± 226 mmHg*s/60 min
Duodenal Motility Contractions [4, 9]: 16.6 ± 3.9 number / 60 min
Antral Motility Contractions [4, 9]: 9.6 ± 2.8 number / 60 min
Antral Amplitude [4, 10]: 31.1 ± 3.1 mmHg
Antral Motility Index [4, 10]: 1478 ± 564 mmHg*s/60 min
Antro-Pyloro-Duodenal Propagated Contractions [4, 10]: 0.0* number/60 min
Duodenal Amplitude [4, 10]: 25.0 ± 2.5 mmHg
Duodenal Motility Index [4, 10]: 3447 ± 1624 mmHg*s/60 min
Duodenal Motility Contractions [4, 10]: 36.0 ± 14.7 number / 60 min
Antral Motility Contractions [4, 10]: 12.6 ± 2.8 number / 60 min
Onset of inhibition of antro-duodenal motility after starting GLP-1 [4, 11]: ≤ 2 min
Time to nearly complete inhibition of antro-duodenal motility [4, 11]: ≤ 20 min
Subjects with duodenal phases III ([5]; GLP-1 infusion in conjunction with lipid perfusion): two out of 11
Volunteers with duodenal phase III ([5]; high dose GLP-1, interdigestive state): five
Pyloric Motility IPPW [5, 7]: 15.5 ± 2.1 number/10 min
Pyloric tone [5, 7]: 8.6 ± 1.0 mmHg
Pyloric Motility IPPW [5, 8]: 15.7 ± 2.5 number/10 min
Pyloric tone [5, 8]: 7.4 ± 1.0 mmHg
Pyloric Motility IPPW [5, 9]: 8.6 ± 1.3 number/10 min
Pyloric tone [5, 9]: 7.3 ± 1.5 mmHg
Pyloric Motility IPPW [5, 10]: 10.1 ± 1.9 number/10 min
Pyloric tone [5, 10]: 5.3 ± 0.9 mmHg
Time until increase of pyloric tone was fully established [5, 12]: ≤ 20 min
Time until increase of pyloric tone was significant [5, 12]: ≤ 10 min
Volunteers with duodenal phase III [5, 12]: seven out of 11
Hypoglycemia and other side effects [6]: did not cause hypoglycemia
